Measurements: the NIST ThermoML archive (doi:10.1021/je700741x)
Numbers after ± are expanded uncertainties.

Conditions: 298.15 K; 101.33 kPa; Liquid

mass density [kg/m3]	Structure (SMILES)
1382.4 ± 1.6	OCC(F)(F)F [2,2,2-trifluoroethanol]
781.4 ± 1.1	CC(C)O [propan-2-ol]
785.2 ± 1	CCO [ethanol]
774 ± 1	C1CCCCC1 [cyclohexane]
